Measured values as given in ChEMBL document CHEMBL1201862, “PubChem BioAssay data set” (2004).
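Results reflect a 48-hour exposure of cells in 96-well plates to compound at five concentrations. At the GI50, growth is halved.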 Activity calls are given as the source filed them. Cut-off read from the data, not from the text of the source: active = GI50 up to about 1.1 µM and inactive = higher. Non-standard residues stand in square brackets, D forms with d. Residues, ends and D or L forms follow the SMILES beside them. ξ: configuration not given here. ξLac(3-iPr) = CC(C)CC(O)C(=O)O; NMeV = CN[CH](C(=O)O)C(C)C; NMeA = CN[CH](C)C(=O)O; βAla = NCCC(=O)O

Key:
Assay in all cases: NCI anticancer screen, dose series, 48 h
KM12 = test system: KM12
UACC-257 = test system: UACC-257
COLO 205 = test system: COLO 205
UO-31 = test system: UO-31
IGROV-1 = test system: IGROV-1
SF-268 = test system: SF-268
SK-OV-3 = test system: SK-OV-3
MOLT-4 = test system: MOLT-4
SNB-19 = test system: SNB-19
OVCAR-8 = test system: OVCAR-8
SNB-75 = test system: SNB-75
HCT-116 = test system: HCT-116
SF-295 = test system: SF-295
K562 = test system: K562
NCI-H23 = test system: NCI-H23
EKVX = test system: EKVX
NCI-H460 = test system: NCI-H460
HOP-62 = test system: HOP-62
OVCAR-5 = test system: OVCAR-5
SW-620 = test system: SW-620

Measured: GI50

COc1cc(/C=C/c2ccc(OC)c(OC)c2)oc(=O)c1
inactive: KM12 > 250 µM | UACC-257 > 250 µM | COLO 205 > 250 µM | UO-31 > 250 µM | IGROV-1 > 220 µM | SF-268 > 170 µM | SK-OV-3 > 250 µM | MOLT-4 > 250 µM | SNB-19 > 218 µM | OVCAR-8 10 µM | SNB-75 73.3 µM | HCT-116 > 250 µM | SF-295 162 µM | K562 > 250 µM | NCI-H23 203 µM | EKVX > 116 µM | NCI-H460 > 230 µM | HOP-62 124 µM | OVCAR-5 > 250 µM | SW-620 > 250 µM

CCCCN1CN2C(=O)C(C(=O)OCC)C(=O)c3sc4nc(SC)nc1c4c32 (stereo not given)
inactive: KM12 16.8 µM | UACC-257 19 µM | COLO 205 18.7 µM | UO-31 21.1 µM | IGROV-1 18.9 µM | SF-268 19.9 µM | SK-OV-3 17.6 µM | MOLT-4 29 µM | SNB-19 19 µM | OVCAR-8 21.6 µM | SNB-75 17.5 µM | HCT-116 15.9 µM | SF-295 16.6 µM | K562 35.5 µM | NCI-H23 18 µM | EKVX 17.9 µM | NCI-H460 19.5 µM | HOP-62 15.7 µM | OVCAR-5 18.6 µM | SW-620 18.4 µM

CCOC(=O)c1ccc(C)c(/N=N/N(C)C)c1
inactive: KM12 > 100 µM | UACC-257 > 100 µM | COLO 205 > 100 µM | UO-31 79.8 µM | IGROV-1 > 100 µM | SF-268 82.8 µM | SK-OV-3 > 100 µM | MOLT-4 > 100 µM | SNB-19 86.7 µM | OVCAR-8 > 100 µM | SNB-75 > 100 µM | HCT-116 > 100 µM | SF-295 > 100 µM | K562 > 100 µM | NCI-H23 > 100 µM | EKVX > 100 µM | NCI-H460 > 100 µM | HOP-62 > 100 µM | OVCAR-5 > 100 µM | SW-620 > 100 µM

COc1cccc(N2C(Cl)C(=O)C2c2c[nH]c3ccccc23)c1 (stereo not given)
inactive: KM12 > 100 µM | UACC-257 > 100 µM | COLO 205 > 100 µM | UO-31 42.8 µM | IGROV-1 > 100 µM | SF-268 > 100 µM | SK-OV-3 > 100 µM | MOLT-4 > 100 µM | SNB-19 > 100 µM | OVCAR-8 > 100 µM | SNB-75 > 10 µM | HCT-116 > 100 µM | SF-295 > 100 µM | K562 > 100 µM | NCI-H23 > 100 µM | EKVX > 100 µM | NCI-H460 > 100 µM | HOP-62 > 100 µM | OVCAR-5 46.1 µM | SW-620 > 100 µM

CC(C)NC(=O)OCc1c(CO)c2c(n1C)-c1ccccc1CC2
inactive: KM12 34.4 µM | UACC-257 31.3 µM | COLO 205 21 µM | UO-31 23.7 µM | IGROV-1 27.5 µM | SF-268 36.1 µM | SK-OV-3 55.1 µM | MOLT-4 14.3 µM | SNB-19 42.2 µM | OVCAR-8 22.5 µM | SNB-75 33 µM | HCT-116 17.2 µM | SF-295 86.9 µM | K562 15.2 µM | NCI-H23 26.7 µM | EKVX 69.2 µM | NCI-H460 25.5 µM | HOP-62 > 58.3 µM | OVCAR-5 80.7 µM | SW-620 20 µM

Cc1ccc(S(=O)(=O)NC(=N)N(C)N=O)cc1
inactive: KM12 > 100 µM | UACC-257 > 100 µM | COLO 205 28.1 µM | UO-31 > 100 µM | IGROV-1 > 100 µM | SF-268 > 100 µM | SK-OV-3 18.5 µM | MOLT-4 > 100 µM | SNB-19 > 100 µM | OVCAR-8 > 100 µM | SNB-75 38.2 µM | HCT-116 > 100 µM | SF-295 > 100 µM | K562 > 100 µM | NCI-H23 > 100 µM | EKVX 85.9 µM | NCI-H460 18.9 µM | HOP-62 > 100 µM | OVCAR-5 > 100 µM | SW-620 > 100 µM

Cc1ccc(C2COc3cc(O)c(O)cc3C2)cc1 (stereo not given)
inactive: KM12 22.4 µM | UACC-257 21.3 µM | COLO 205 12.5 µM | UO-31 30 µM | IGROV-1 14.6 µM | SF-268 13.2 µM | SK-OV-3 139 µM | MOLT-4 4.48 µM | SNB-19 39.4 µM | OVCAR-8 15 µM | SNB-75 42 µM | HCT-116 12.4 µM | SF-295 32.6 µM | K562 7.28 µM | NCI-H23 23.4 µM | EKVX 20.4 µM | NCI-H460 55.3 µM | HOP-62 97.9 µM | OVCAR-5 94 µM | SW-620 11.1 µM

CN(C)CC(C)(C)/C(=N\Nc1ccccc1)c1ccccc1
inactive: KM12 43.3 µM | UACC-257 51.6 µM | COLO 205 64.3 µM | UO-31 12.3 µM | IGROV-1 36.4 µM | SF-268 31.8 µM | SK-OV-3 21.8 µM | MOLT-4 46.3 µM | SNB-19 > 100 µM | OVCAR-8 99.8 µM | SNB-75 37.1 µM | HCT-116 68.4 µM | SF-295 21.1 µM | K562 28.1 µM | NCI-H23 > 100 µM | EKVX 47.2 µM | NCI-H460 53.3 µM | HOP-62 45.2 µM | OVCAR-5 46.6 µM | SW-620 29.1 µM

Cc1cccc2ns[s+]c12
inactive: KM12 > 100 µM | UACC-257 > 100 µM | COLO 205 > 100 µM | UO-31 53 µM | IGROV-1 > 100 µM | SF-268 82 µM | SK-OV-3 > 100 µM | MOLT-4 38.5 µM | SNB-19 66.8 µM | OVCAR-8 47.1 µM | SNB-75 59 µM | HCT-116 20 µM | SF-295 > 100 µM | K562 29.9 µM | NCI-H23 > 100 µM | EKVX > 100 µM | NCI-H460 23 µM | HOP-62 > 100 µM | OVCAR-5 > 100 µM | SW-620 17.4 µM

CCN1CCCC(NCc2c3ccccc3c(CNC3CCCN(CC)C3)c3ccccc23)C1 (stereo not given)
inactive: KM12 5.45 µM | UACC-257 10.9 µM | COLO 205 1.99 µM | UO-31 24.8 µM | IGROV-1 16.2 µM | SF-268 7.8 µM | SK-OV-3 10.1 µM | MOLT-4 3.18 µM | SNB-19 11.1 µM | OVCAR-8 > 33.7 µM | SNB-75 7.98 µM | HCT-116 4.5 µM | SF-295 4.67 µM | K562 7.85 µM | NCI-H23 15.6 µM | EKVX 17.3 µM | NCI-H460 3.65 µM | HOP-62 19.6 µM | OVCAR-5 5.96 µM | SW-620 4.04 µM

CCC(C)C1NC(=O)C2CCCN2C(=O)C(CC(C)C)OC(=O)CCNC(=O)C(C)N(C)C(=O)C(C(C)C)N(C)C1=O (stereo not given) (cyclo([ξLac(3-iPr)]PI[NMeV][NMeA][βAla]); configuration not given here)
inactive: KM12 3.44 µM | UACC-257 6.32 µM | COLO 205 3.61 µM | UO-31 6.84 µM | IGROV-1 5.83 µM | SF-268 6 µM | SK-OV-3 20.6 µM | MOLT-4 1.83 µM | SNB-19 49 µM | OVCAR-8 3.48 µM | SNB-75 15.5 µM | HCT-116 2.2 µM | SF-295 2.5 µM | K562 3.16 µM | NCI-H23 9.84 µM | EKVX 10.2 µM | NCI-H460 1.19 µM | HOP-62 2.77 µM | OVCAR-5 4.83 µM | SW-620 3.73 µM

CCCCS(=N)(=O)CC[C@H](N)C(=O)O (stereo not given in full) [BUTHIONINE SULFOXIME]
inactive: KM12 > 5000 µM | UACC-257 > 5000 µM | COLO 205 > 5000 µM | UO-31 2480 µM | IGROV-1 2110 µM | SF-268 4260 µM | SK-OV-3 > 5000 µM | MOLT-4 2550 µM | SNB-19 > 5000 µM | OVCAR-8 2320 µM | SNB-75 2320 µM | HCT-116 > 5000 µM | SF-295 > 5000 µM | K562 > 5000 µM | NCI-H23 3420 µM | EKVX 1450 µM | NCI-H460 4730 µM | HOP-62 > 5000 µM | OVCAR-5 > 5000 µM | SW-620 > 5000 µM

CCCCCCCCCCCCCCCCSCC(COC)COP(=O)([O-])OCC[N+](C)(C)C (stereo not given) [ILMOFOSINE]
inactive: UACC-257 14.3 µM | COLO 205 1.97 µM | UO-31 7.69 µM | IGROV-1 1.85 µM | SF-268 7.57 µM | SK-OV-3 15.2 µM | MOLT-4 2.41 µM | SNB-19 4.3 µM | OVCAR-8 9.06 µM | SNB-75 3.31 µM | HCT-116 6.76 µM | SF-295 2.49 µM | K562 13.6 µM | NCI-H23 13.6 µM | EKVX 14.4 µM | NCI-H460 2.5 µM | HOP-62 3.43 µM | OVCAR-5 13.3 µM | SW-620 5.78 µM
active: KM12 0.977 µM
